# PMC7054460 (2020)
# How the values were obtained:
# [1] = tested on: Y2 (DNA, duplex, free-base (2H) porphyrin-dU (porphyrin via rigid acetylene linker) at 10 of strand 1 and at 4 of strand 2) CGCATTATATGC/GCATATAATGCG; test: CD titration (porphyrin exciton coupling), Scatchard fit; conditions: Na+ 100 mM NaCl + 100 mM Na2HPO4 (assumed from Fig. 2 legend); 4 μM DNA; EtBr 40-800 μM; apparent; local site between adjacent porphyrins; buffer not given; per base
# [2] = tested on: Y1 (DNA, duplex, free-base (2H) porphyrin-dU (porphyrin via rigid acetylene linker) at 5 of strand 1 and at 4 of strand 2) CGCATTATATGC/GCATATAATGCG; test: as above; conditions: Na+ 100 mM NaCl + 100 mM Na2HPO4 (assumed from Fig. 2 legend); 4 μM DNA; EtBr 40-800 μM; apparent; global intercalation; buffer not given; per base
smiles,measurement,setting,value
CC[n+]1c(-c2ccccc2)c2cc(N)ccc2c2ccc(N)cc21,Ka (association binding constant),[1],3.54 ± 0.4 × 10^5 M^-1
same,Ka (association binding constant),[2],1.43 ± 0.2 × 10^5 M^-1
